{"source": "ChEMBL document CHEMBL1137926", "about": "“S-(2-(acylamino)phenyl) 2,2-dimethylpropanethioates as CETP inhibitors” (Bioorg Med Chem Lett, 2004)"}
{"target": "T1, Cholesteryl ester transfer protein (Homo sapiens, UniProt P11597)", "T1 sequence (P11597 whole entry)": "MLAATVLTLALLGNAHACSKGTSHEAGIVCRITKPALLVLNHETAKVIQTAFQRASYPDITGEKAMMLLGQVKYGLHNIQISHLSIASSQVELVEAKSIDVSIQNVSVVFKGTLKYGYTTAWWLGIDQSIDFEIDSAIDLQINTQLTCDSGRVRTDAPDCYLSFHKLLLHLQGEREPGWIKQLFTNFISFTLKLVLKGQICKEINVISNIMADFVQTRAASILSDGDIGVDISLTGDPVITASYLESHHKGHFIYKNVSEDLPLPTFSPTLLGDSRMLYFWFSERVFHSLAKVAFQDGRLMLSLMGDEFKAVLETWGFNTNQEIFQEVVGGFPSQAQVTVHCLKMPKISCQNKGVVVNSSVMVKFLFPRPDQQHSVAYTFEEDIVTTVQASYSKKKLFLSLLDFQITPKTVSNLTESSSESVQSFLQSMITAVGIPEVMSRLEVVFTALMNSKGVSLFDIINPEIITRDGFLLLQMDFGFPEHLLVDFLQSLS", "experiment": "In vitro inhibition of CETP activity was assessed by measuring the rate of [3H]- cholesteryl ester transfer from HDL to apoprotein B-containing lipoproteins in human plasma", "type": "cell-free", "units": {"IC50": "µM"}}
{"smiles": "CC(C)CCC1(C(=O)Nc2ccc(Cl)cc2SC(=O)C(C)(C)C)CCCCC1", "IC50": 10}
{"smiles": "CC(C)(C)C(=O)Sc1ccc(F)cc1NC(=O)C1(C)CCCCC1", "IC50": 70}
{"smiles": "Cc1ccc(SC(=O)C(C)(C)C)c(NC(=O)C2(CCC(C)C)CCCCC2)c1", "IC50": "> 300"}
{"smiles": "COc1ccc(SC(=O)C(C)(C)C)c(NC(=O)C2(C)CCCCC2)c1", "IC50": "> 300"}
{"smiles": "COc1ccc(SC(=O)C(C)(C)C)c(NC(=O)C2(CCC(C)C)CCCCC2)c1", "IC50": "> 300"}
{"smiles": "CC(C)(C)C(=O)Sc1ccc(C#N)cc1NC(=O)C1(C)CCCCC1", "IC50": 102}
{"smiles": "CC(C)(C)C(=O)Sc1cc(F)ccc1NC(=O)C1(C)CCCCC1", "IC50": 78}
{"smiles": "CC(C)(C)C(=O)Sc1c(F)cccc1NC(=O)C1(C)CCCCC1", "IC50": "> 300"}
{"smiles": "CC(C)CCC1(C(=O)Nc2cc(Cl)ccc2SC(=O)C(C)(C)C)CCCCC1", "IC50": 13}
{"smiles": "CC(C)CCC1(C(=O)Nc2cc(C(F)(F)F)ccc2SC(=O)C(C)(C)C)CCCCC1", "IC50": 13}
{"smiles": "CC(C)(C)C(=O)Sc1cc(F)cc(F)c1NC(=O)C1(C)CCCCC1", "IC50": "> 300"}
